Article PMC12088830 (Xenobiotica; the fate of foreign compounds in biological …, 2021)
Each block holds one compound with its values, some of them ahead of it.

How the values were obtained:
OATP4C1 = experiment: Protein expression; type: cell-based, human; details: for Effect on OATP4C1 protein expression: normal serum
CYP24A1 [1] = experiment: Gene expression
CYP2R1 [2] = experiment: Protein expression; type: cell-based, human
SLCO4C1 = experiment: Gene expression; type: cell-based, human; details: uraemic serum 24 h, then 240 nM for six days
P-gp = experiment: Protein expression; type: cell-based, human; details: 240 nM for six days
CYP2R1 [3] = experiment: Gene expression; details: for CYP2R1 mRNA expression compared to normal serum + VEH: normal serum 24 h; for CYP2R1 mRNA expression relative to VEH + normal serum: uraemic serum 24 h
P-gp and MRP4 = details: Caco-2 cells; 3 day treatment, 100 nM; ref Maeng et al 2012; cited from earlier work
CYP24A1 [4] = details: HepG2 cells; 4 nM dose; ref Horvath et al 2012; cited from earlier work
hPTECs = experiment: Viability assay; type: cell-based, human
ABCB1 = experiment: Gene expression; type: cell-based, human
in vitro = details: human
[5] = normal serum 24 h, then 100 nM for six days
[6] = normal serum 24 h, then 240 nM for six days
[7] = uraemic serum 24 h, then 100 nM for six days

Structure (SMILES): C=C1/C(=C\C=C2/CCC[C@]3(C)[C@@H]([C@H](C)CCCC(C)(C)O)CC[C@@H]23)C[C@@H](O)C[C@@H]1O [1,25-VitD3, calcitriol]
Decrease in OATP4C1 protein expression relative to normal serum + VEH (OATP4C1; 240 nM for six days): 54% | Effect on OATP4C1 protein expression (OATP4C1; 100 nM for six days): no effect | Effect on efflux ratio of [3H]digoxin (hPTEC monolayer; 240 nM for six days, normal or uraemic serum): did not have a significant effect | CYP24A1 mRNA expression compared to normal serum + VEH (CYP24A1 [1]; [5]): 8706 fold | CYP24A1 mRNA expression compared to normal serum + VEH (CYP24A1 [1]; [6]): 9483 fold | CYP24A1 mRNA expression compared to normal serum + VEH (CYP24A1 [1]; [7]): 4967 fold | CYP24A1 mRNA expression compared to normal serum + VEH (CYP24A1 [1]; uraemic serum 24 h, then 240 nM for six days): 5343 fold | Decrease in CYP2R1 protein expression under uraemic conditions compared to the same treatment with normal serum (CYP2R1 [2]; 100 nM for six days): 38% | Decrease in CYP2R1 protein expression under uraemic conditions compared to the same treatment with normal serum (CYP2R1 [2]; 240 nM for six days): 64% | SLCO4C1 mRNA expression compared to normal serum + VEH (SLCO4C1): 3.3 fold | Increase in P-gp protein expression with uraemic serum compared to the same treatment with normal serum (P-gp): 1.44 fold | CYP2R1 mRNA expression compared to normal serum + VEH (CYP2R1 [3]; then 240 nM for six days): 4.7 fold | CYP2R1 mRNA expression relative to VEH + normal serum (CYP2R1 [3]; then 100 nM for six days): 4.8 fold | CYP2R1 mRNA expression relative to VEH + normal serum (CYP2R1 [3]; then 240 nM for six days): 4.0 fold | Effect on P-gp and MRP4 transport activity (basolateral to apical transport of adefovir dipivoxil) (P-gp and MRP4): Increased P-gp and MRP4 transport activity | CYP24A1 expression increase (CYP24A1 [4]): 5,300 fold | Effect on increasing cell viability relative to VEH (hPTECs; uraemic serum 24 h pre-treatment, then 100 nM and 240 nM for six days): no significant effects | ABCB1 mRNA expression compared to normal serum + VEH (ABCB1; [5]): 8.8 fold | ABCB1 mRNA expression compared to normal serum + VEH (ABCB1; [6]): 7.6 fold | ABCB1 mRNA expression compared to normal serum + VEH (ABCB1; [7]): 10 fold

Structure (SMILES): C=C1CC[C@H](O)C/C1=C/C=C1\CCC[C@]2(C)[C@@H]([C@H](C)CCCC(C)C)CC[C@@H]12 [VitD3, cholecalciferol]
Effect on OATP4C1 protein expression (OATP4C1; 240 nM for six days): no effect | Increase in CYP2R1 mRNA expression under uraemic conditions compared to normal serum (same treatment) (CYP2R1 [3]; 100 nM for six days): 45% | CYP2R1 mRNA expression compared to normal serum + VEH (CYP2R1 [3]; then 240 nM for six days): 3.6 fold | CYP2R1 mRNA expression relative to VEH + normal serum (CYP2R1 [3]; then 100 nM for six days): 3.1 fold | Effect on cell viability (hPTECs; normal or uraemic serum, 100 or 240 nM for six days): no significant effects | Effect on ABCB1 mRNA expression (ABCB1; 100 or 240 nM for six days, normal or uraemic serum): no effect

Digoxin transport in the B→A direction (hPTEC monolayer; one hour post digoxin dosing, normal serum + VEH): 29.9 ± 2.4% | Papp A→B at 33.5 μM (in vitro): 3.9 ± 0.14 ×10⁻⁶ cm/s | Papp A→B at 6 h, 33.5 μM (in vitro): 4.1 ± 0.27 ×10⁻⁶ cm/s
Structure (SMILES): C[C@H]1O[C@@H](O[C@H]2[C@@H](O)C[C@H](O[C@H]3[C@@H](O)C[C@H](O[C@H]4CC[C@@]5(C)[C@H](CC[C@@H]6[C@@H]5C[C@@H](O)[C@]5(C)[C@@H](C7=CC(=O)OC7)CC[C@]65O)C4)O[C@@H]3C)O[C@@H]2C)C[C@H](O)[C@@H]1O [[^3H]digoxin, digoxin]
